# Like-named read-outs stand apart in the source and are kept apart here.
# Tested on: Mycosphaerella graminicola; Anamorph: Septoria tritici; Bayer Code SEPTTR
# Test: Leaf blotch of wheat, foliar fungicide treatment, one day protectant (1DP) or three day curative (3DC)
# Assay type: in vivo, Septoria tritici on wheat plants (variety Yuma)
# Conditions: Zymoseptoria tritici; for pest or weed control at 50 ppm / pest or weed control at 200 ppm: % disease control rating, one day protectant
# [1] = 24 h, one day protectant (1DP), 25 ppm, rating of percent disease control, read-out: SETTTR 1DP 25 ppm
# [2] = 24 h, one day protectant (1DP), rating of percent disease control, read-out: SEPTTR 1DP 100 ppm
# [3] = 72 h, three day curative (3DC), 25 ppm, rating of percent disease control, read-out: SEPTTR 3DC 25 ppm
# [4] = 72 h, three day curative (3DC), rating of percent disease control, read-out: SEPTTR 3DC 100 ppm
# [5] = 24 h, one day protectant (1DP), 25 ppm (first 1DP column), percent control rating, read-out: SETTTR 1DP 25 ppm
# [6] = 24 h, one day protectant (1DP), 25 ppm as printed (second 1DP column), percent control rating, read-out: SETTTR 1DP 25 ppm
# [7] = 72 h, three day curative (3DC), 25 ppm, percent control rating, read-out: SEPTTR 3DC 25 ppm
# [8] = 72 h, three day curative (3DC), percent control rating, read-out: SEPTTR 3DC 100 ppm
SMILES,pest or weed control at 25 ppm [1],pest or weed control at 100 ppm [2],pest or weed control at 25 ppm [3],pest or weed control at 100 ppm [4],other results
Cn1ccc(COc2ncc(F)c(NSc3ccccc3[N+](=O)[O-])n2)n1 [Compound 366],76 to 100%,76 to 100%,51 to 75%,76 to 100%,
COCCOC(=O)Oc1ncc(F)c(/N=C/N(C)C)n1 [Compound 389],76 to 100%,76 to 100%,76 to 100%,76 to 100%,
CNN(C)c1nc(OC)ncc1F [Compound 1056],,,,,pest or weed control at 25 ppm [5]: 0 to 25%; pest or weed control at 25 ppm [6]: 0 to 25%; pest or weed control at 25 ppm [7]: 26 to 50%; pest or weed control at 100 ppm [8]: 26 to 50%
CCOc1ccc(COc2ncc(F)c(N)n2)cc1 [Compound 400],76 to 100%,76 to 100%,76 to 100%,76 to 100%,
Nc1nc(OCCc2ccc(Cl)cc2)ncc1F [Compound 455],51 to 75%,76 to 100%,26 to 50%,76 to 100%,
Fc1cnc(OCc2ccc(Cl)cc2)nc1N1CCOCC1 [Compound 925],,,,,pest or weed control at 50 ppm (24 h): 0 to 25%; pest or weed control at 200 ppm (24 h): 0 to 25%
COc1cc(F)c(COc2ncc(F)c(N)n2)cn1 [Compound 185],76 to 100%,76 to 100%,76 to 100%,76 to 100%,
COc1ccc(OC(=O)Oc2ncc(F)c(/N=C/N(C)C)n2)cc1 [Compound 523],76 to 100%,76 to 100%,76 to 100%,76 to 100%,
Nc1nc(OCc2ccccn2)ncc1F [Compound 891],,,,,pest or weed control at 50 ppm (24 h): 76 to 100%; pest or weed control at 200 ppm (24 h): 76 to 100%
CC(C)(C)OC(=O)Nc1nc(OCc2ccc(F)cc2)ncc1F [Compound 101],,,,,"pest or weed control at 25 ppm (24 h, one day protectant (1DP), 25 ppm, percent disease control rating, read-out: SETTTR 1DP 25 ppm): 51 to 75%; pest or weed control at 100 ppm (24 h, one day protectant (1DP), percent disease control rating, read-out: SEPTTR 1DP 100 ppm): 51 to 75%; pest or weed control at 25 ppm (72 h, three day curative (3DC), 25 ppm, percent disease control rating, read-out: SEPTTR 3DC 25 ppm): 0 to 25%; pest or weed control at 100 ppm (72 h, three day curative (3DC), percent disease control rating, read-out: SEPTTR 3DC 100 ppm): 0 to 25%"
CCCNC(=O)Nc1nc(OCc2cccs2)ncc1F [Compound 776],0 to 25%,0 to 25%,0 to 25%,0 to 25%,
COCCOC(=O)Nc1nc(OCc2cccc(F)c2)ncc1F [Compound 273],51 to 75%,76 to 100%,76 to 100%,76 to 100%,
CCC(Nc1nc(OCc2ccc(F)cc2)ncc1F)Nc1nc(OCc2ccc(F)cc2)ncc1F [Compound 238],0 to 25%,51 to 75%,0 to 25%,26 to 50%,
Fc1ccccc1CNc1nc(OCCc2ccccc2)ncc1F [Compound 948],,,,,pest or weed control at 50 ppm (24 h): 0 to 25%; pest or weed control at 200 ppm (24 h): 0 to 25%
CN(O)c1nc(OCc2ccc(F)cc2)ncc1F [Compound 487],0 to 25%,76 to 100%,0 to 25%,76 to 100%,
Cc1ccc(CNc2nc(OCc3ccc(F)cc3)ncc2F)cc1 [Compound 951],,,,,pest or weed control at 50 ppm (24 h): 51 to 75%; pest or weed control at 200 ppm (24 h): 76 to 100%
Fc1cnc(OCc2ccccc2)nc1/N=N/c1cccc(C(F)(F)F)c1 [Compound 958],,,,,pest or weed control at 25 ppm [5]: 0 to 25%; pest or weed control at 25 ppm [6]: 0 to 25%; pest or weed control at 25 ppm [7]: 26 to 50%; pest or weed control at 100 ppm [8]: 26 to 50%
Nc1nc(OCC(F)(F)F)ncc1F [Compound 864],,,,,pest or weed control at 50 ppm (24 h): 0 to 25%; pest or weed control at 200 ppm (24 h): 26 to 50%
N#Cc1cccc(COc2ncc(F)c(NC(=S)Nc3ccccc3F)n2)c1 [Compound 781],0 to 25%,51 to 75%,0 to 25%,26 to 50%,
Fc1cnc(OCc2ccccc2)nc1/N=N/c1ccccn1 [Compound 993],,,,,pest or weed control at 25 ppm [5]: 0 to 25%; pest or weed control at 25 ppm [6]: 26 to 50%; pest or weed control at 25 ppm [7]: 0 to 25%; pest or weed control at 100 ppm [8]: 51 to 75%

# From patent US9204653B2, “5-fluoro pyrimidine derivatives” (DOW AGROSCIENCES LLC, priority 2008, dated 2015)
